This passage reports EC50 results from patent US10987359B2, “Oxadiazepinone derivatives and methods of treating hepatitis B infections” (priority 2016, dated 2021).

SMILES strings stand for the structures.

One assay relates to HBV. Description: HBV replication inhibition assay (BDNA assay) in HepG2.2.15 cells. The format is cell-based. The following applies: HBV replication assay (BDNA assay), HepG2.2.15 cells; read-out: DNA EC50. The procedure, abridged: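 Supernatant encapsidated HBV DNA was measured by bDNA after DNase digestion and proteinase K release. Stably HBV-integrated HepG2.2.15 cells had two 3-day compound exposures (0.5% DMSO). Signals were background-subtracted and normalized to DMSO wells, and EC50 was obtained by four-parameter fit.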
`C[C@@H]1Cc2nn3c(c2CN1C(=O)Nc1ccc(F)c(C#N)c1)C(=O)N(C)OC(CNS(C)(=O)=O)C3` (single isomer, unassigned) [Compound 178_D1, (4S*,9R)—N-(3-cyano-4-fluorophenyl)-2,9-dimethyl-4-(methylsulfonamidomethyl)-1-oxo-1,4,5,8,9,11-hexahydropyrido[4′,3′:3,4]pyrazolo[5,1-d][1,2,5]oxadiazepine-10(2H)-carboxamide]: the EC50 (commonly the concentration needed to bring the measured effect to its halfway point) was 100 to 500 nM.
The same measure, in the same setting: then `C[C@@H]1Cc2nn3c(c2CN1C(=O)Nc1ccc(F)c(C#N)c1)C(=O)N(C)OC(CNS(C)(=O)=O)C3` (single isomer, unassigned) [Compound 178_D2, (4R*,9R)—N-(3-cyano-4-fluorophenyl)-2,9-dimethyl-4-(methylsulfonamidomethyl)-1-oxo-1,4,5,8,9,11-hexahydropyrido[4′,3′:3,4]pyrazolo[5,1-d][1,2,5]oxadiazepine-10(2H)-carboxamide], with 1 to 100 nM; and `C[C@@H]1Cc2nn3c(c2CN1C(=O)Nc1ccc(F)c(C(F)(F)F)c1)C(=O)N(C)OC(CNS(C)(=O)=O)C3` (single isomer, unassigned) [Compound 179_D2, (4R*,9R)—N-(4-fluoro-3-(trifluoromethyl)phenyl)-2,9-dimethyl-4-(methylsulfonamidomethyl)-1-oxo-1,4,5,8,9,11-hexahydropyrido[4′,3′:3,4]pyrazolo[5,1-d][1,2,5]oxadiazepine-10(2H)-carboxamide], with 1 to 100 nM; and `COC(=O)NCC1Cn2nc3c(c2C(=O)N(C)O1)CN(C(=O)Nc1ccc(F)c(C#N)c1)[C@H](C)C3` (single isomer, unassigned) [Compound 180_D2, methyl (((4R*,9R)-10-((3-cyano-4-fluorophenyl)carbamoyl)-2,9-dimethyl-1-oxo-1,2,4,5,8,9,10,11-octahydropyrido[4′,3′:3,4]pyrazolo[5,1-d][1,2,5]oxadiazepin-4-yl)methyl)carbamate], with 1 to 100 nM.
Consider `COC(=O)NCC1Cn2nc3c(c2C(=O)N(C)O1)CN(C(=O)Nc1ccc(F)c(C(F)(F)F)c1)[C@H](C)C3` (single isomer, unassigned) [Compound 181_D2, methyl (((4R*,9R)-10-((4-fluoro-3-(trifluoromethyl)phenyl)carbamoyl)-2,9-dimethyl-1-oxo-1,2,4,5,8,9,10,11-octahydropyrido[4′,3′:3,4]pyrazolo[5,1-d][1,2,5]oxadiazepin-4-yl)methyl)carbamate], for which the EC50 was 1 to 100 nM.
With `C[C@@H]1Cc2nn3c(c2CN1C(=O)Nc1ccc(F)c(C(F)(F)F)c1)C(=O)N(C)OC(CNCC(F)F)C3` (single isomer, unassigned) [Compound 182_D2, (4R*,9R)-4-(((2,2-difluoroethyl)amino)methyl)-N-(4-fluoro-3-(trifluoromethyl)phenyl)-2,9-dimethyl-1-oxo-1,4,5,8,9,11-hexahydropyrido[4′,3′:3,4]pyrazolo[5,1-d][1,2,5]oxadiazepine-10(2H)-carboxamide], the EC50 is 1 to 100 nM.

Still in this assay, the particulars now being: Hepatitis B virus, HepG2.2.15, HBV replication assay (BDNA assay), HepG2.2.15 cells; read-out: DNA EC50.
For the compound `C[C@@H]1Cc2nn3c(c2CN1C(=O)Nc1ccc(F)c(C(F)(F)F)c1)C(=O)N(C)OC(CNS(C)(=O)=O)C3` (single isomer, unassigned) [Compound 179_D1, (4 S*,9R)—N-(4-fluoro-3-(trifluoromethyl)phenyl)-2,9-dimethyl-4-(methylsulfonamidomethyl)-1-oxo-1,4,5,8,9,11-hexahydropyrido[4′,3′:3,4]pyrazolo[5,1-d][1,2,5]oxadiazepine-10(2H)-carboxamide], the EC50 was in the range of 1 to 100 nM.
On the same count and under the same terms, then `COC(=O)NCC1Cn2nc3c(c2C(=O)N(C)O1)CN(C(=O)Nc1ccc(F)c(C#N)c1)[C@H](C)C3` (single isomer, unassigned) [Compound 180_D1, methyl (((4S*,9R)-10-((3-cyano-4-fluorophenyl)carbamoyl)-2,9-dimethyl-1-oxo-1,2,4,5,8,9,10,11-octahydropyrido[4′,3′:3,4]pyrazolo[5,1-d][1,2,5]oxadiazepin-4-yl)methyl)carbamate], with 1 to 100 nM; and `COC(=O)NCC1Cn2nc3c(c2C(=O)N(C)O1)CN(C(=O)Nc1ccc(F)c(C(F)(F)F)c1)[C@H](C)C3` (single isomer, unassigned) [Compound 181_D1, methyl(((4S*,9R)-10-((4-fluoro-3-(trifluoromethyl)phenyl)carbamoyl)-2,9-dimethyl-1-oxo-1,2,4,5,8,9,10,11-octahydropyrido[4′,3′:3,4]pyrazolo[5,1-d][1,2,5]oxadiazepin-4-yl)methyl)carbamate], with 1 to 100 nM.
The same measure, in the same setting: in the case of `C[C@@H]1Cc2nn3c(c2CN1C(=O)Nc1ccc(F)c(C(F)(F)F)c1)C(=O)N(C)OC(CNCC(F)F)C3` (single isomer, unassigned) [Compound 182_D1, (4S*,9R)-4-(((2,2-difluoroethyl)amino)methyl)-N-(4-fluoro-3-(trifluoromethyl)phenyl)-2,9-dimethyl-1-oxo-1,4,5,8,9,11-hexahydropyrido[4′,3′:3,4]pyrazolo[5,1-d][1,2,5]oxadiazepine-10(2H)-carboxamide] it was 1 to 100 nM; in that of `CN1OC(CNCC(F)F)Cn2nc3c(c2C1=O)CN(C(=O)Nc1ccc(F)c(C#N)c1F)CC3` (single isomer, unassigned) [Compound 186_E1, (S*)—N-(3-cyano-2,4-difluorophenyl)-4-(((2,2-difluoroethyl)amino)methyl)-2-methyl-1-oxo-1,4,5,8,9,11-hexahydropyrido[4′,3′:3,4]pyrazolo[5,1-d][1,2,5]oxadiazepine-10(2H)-carboxamide], 1 to 100 nM; in that of `CN1OC(CNCC(F)F)Cn2nc3c(c2C1=O)CN(C(=O)Nc1ccc(F)c(C#N)c1)CC3` (single isomer, unassigned) [Compound 187_E1, (S*)—N-(3-cyano-4-fluorophenyl)-4-(((2,2-difluoroethyl)amino)methyl)-2-methyl-1-oxo-1,4,5,8,9,11-hexahydropyrido[4′,3′:3,4]pyrazolo[5,1-d][1,2,5]oxadiazepine-10(2H)-carboxamide], 1 to 100 nM.
Same read-out and setting: then `CN1OC(CNCC(F)F)Cn2nc3c(c2C1=O)CN(C(=O)Nc1ccc(F)c(Cl)c1F)CC3` (single isomer, unassigned) [Compound 188_E1, (S*)—N-(3-chloro-2,4-difluorophenyl)-4-(((2,2-difluoroethyl)amino)methyl)-2-methyl-1-oxo-1,4,5,8,9,11-hexahydropyrido[4′,3′:3,4]pyrazolo[5,1-d][1,2,5]oxadiazepine-10(2H)-carboxamide], with 1 to 100 nM; and `CN1OC(CNCC(F)F)Cn2nc3c(c2C1=O)CN(C(=O)Nc1ccc(F)c(Br)c1F)CC3` (single isomer, unassigned) [Compound 189_E1, (S*)—N-(3-bromo-2,4-difluorophenyl)-4-(((2,2-difluoroethyl)amino)methyl)-2-methyl-1-oxo-1,4,5,8,9,11-hexahydropyrido[4′,3′:3,4]pyrazolo[5,1-d][1,2,5]oxadiazepine-10(2H)-carboxamide], with 1 to 100 nM.
On to `CN1OC(CNCC(F)F)Cn2nc3c(c2C1=O)CN(C(=O)Nc1ccc(F)c(Br)c1)CC3` (single isomer, unassigned) [Compound 190_E1, (S*)—N-(3-bromo-4-fluorophenyl)-4-(((2,2-difluoroethyl)amino)methyl)-2-methyl-1-oxo-1,4,5,8,9,11-hexahydropyrido[4′,3′:3,4]pyrazolo[5,1-d][1,2,5]oxadiazepine-10(2H)-carboxamide], for which the EC50 is 1 to 100 nM.
As to `CN1OC(CNCC(F)F)Cn2nc3c(c2C1=O)CN(C(=O)Nc1ccc(F)c(C(F)(F)F)c1F)CC3` (single isomer, unassigned) [Compound 191_E1, (S*)—N-(2,4-difluoro-3-(trifluoromethyl)phenyl)-4-(((2,2-difluoroethyl)amino)methyl)-2-methyl-1-oxo-1,4,5,8,9,11-hexahydropyrido[4′,3′:3,4]pyrazolo[5,1-d][1,2,5]oxadiazepine-10(2H)-carboxamide], the concentration giving a half-maximal response (EC50) lay in the range of 1 to 100 nM.
Regarding `CN1OC(CNCC(F)F)Cn2nc3c(c2C1=O)CN(C(=O)Nc1cc(Cl)c(F)cc1F)CC3` (single isomer, unassigned) [Compound 192_E1, (S*)—N-(5-chloro-2,4-difluorophenyl)-4-(((2,2-difluoroethyl)amino)methyl)-2-methyl-1-oxo-1,4,5,8,9,11-hexahydropyrido[4′,3′:3,4]pyrazolo[5,1-d][1,2,5]oxadiazepine-10(2H)-carboxamide], the EC50 fell in the range of 1 to 100 nM.
As for `CN1OC(CNCC(F)F)Cn2nc3c(c2C1=O)CN(C(=O)Nc1cc(Br)c(F)cc1F)CC3` (single isomer, unassigned) [Compound 193_E1, (S*)—N-(5-bromo-2,4-difluorophenyl)-4-(((2,2-difluoroethyl)amino)methyl)-2-methyl-1-oxo-1,4,5,8,9,11-hexahydropyrido[4′,3′:3,4]pyrazolo[5,1-d][1,2,5]oxadiazepine-10(2H)-carboxamide], the EC50 lay in the range of 1 to 100 nM.
On to `CN1OC(COCC(F)(F)F)Cn2nc3c(c2C1=O)CN(C(=O)Nc1ccc(F)c(C#N)c1)CC3` (single isomer, unassigned) [Compound 211, (S*)—N-(3-cyano-4-fluorophenyl)-2-methyl-1-oxo-4-((2,2,2-trifluoroethoxy)methyl)-1,4,5,8,9,11-hexahydropyrido[4′,3′:3,4]pyrazolo[5,1-d][1,2,5]oxadiazepine-10(2H)-carboxamide], for which the EC50 was 1 to 100 nM.
Consider `CN1OC(COCC(F)F)Cn2nc3c(c2C1=O)CN(C(=O)Nc1ccc(F)c(C(F)(F)F)c1)CC3` (single isomer, unassigned) [Compound 212, (S*)-4-((2,2-difluoroethoxy)methyl)-N-(4-fluoro-3-(trifluoromethyl)phenyl)-2-methyl-1-oxo-1,4,5,8,9,11-hexahydropyrido[4′,3′:3,4]pyrazolo[5,1-d][1,2,5]oxadiazepine-10(2H)-carboxamide], for which the EC50 fell in the range of 1 to 100 nM.
